Measurements published in patent US4174391A, “Spiramycin esters” (May & Baker Limited, priority 1976, dated 1979).
In brackets after ≈: the same amount, converted by molar mass. Where a name gives a salt, the structure may show the parent alone.

Key:
[1] = system: Staphylococcus aureus Smith; assay: Mouse treated subcutaneously, Staphylococcus aureus Smith infection (Test 2); format: in vivo; details: sc, 168 h, read-out: CD50 (subcutaneous)
Method: (§1) The term "CD50" means the dose calculated to cure 50% of the mice treated.
Mice were infected intra-peritoneally with Staphylococcus aureus Smith [approximately 100 times the minimum dose lethal to 100% of mice infected] suspended in mucin (0.5 ml).
The results obtained from a compound of general formula I were compared with the results obtained from spiramycin I used as a standard compound.

[2] = system: Staphylococcus aureus (Oxford); assay: In vitro minimum inhibitory concentration, S. aureus (Oxford) (Test 3); format: cell-based; details: tryptone soya broth, approximately 10^5 organisms per tube, 37° C.; for MIC: Staphylococcus aureus
Method: (§2) For each test compound, a range of concentrations in tryptone soya broth was prepared. Each test-tube containing a different concentration of the test compound within the range was inoculated with the test organism selected from Staphylococcus aureus (Oxford) or Escherichia coli B (Ennis) (approximately 10^5 organisms per tube) and after incubation at 37° C., the lowest concentration of test compound within the range required to prevent the growth of the test organism was recorded as the minimum inhibitory concentration for that compound and that organism.

[3] = system: Escherichia coli B (Ennis); assay: In vitro minimum inhibitory concentration, E. coli B (Ennis) (Test 3); format: cell-based; details: tryptone soya broth, approximately 10^5 organisms per tube, 37° C.; for MIC: Escherichia coli
Method: as §2

[4] = system: Staphylococcus aureus Smith; assay: Mouse treated orally, Staphylococcus aureus Smith infection (Test 1); details: 168 h, oral, dosed 1, 4, 24, 30 and 48 hours after infection, observed seven days, test compound, read-out: In vivo CD50 (oral)
Method: Mice were injected intra-peritoneally with Staphylococcus aureus Smith suspended in mucin (0.5 ml). This infection represented approximately 100 times the minimum dose calculated to kill 100% of mice. The mice were each treated orally with 16, 31, 62.5, 125 or 250 mg/kg animal body weight doses of a compound of general formula I. Each mouse was dosed 1, 4, 24, 30 and 48 hours after infection, with the selected dose.
as §1

Mouse oral toxicity = details: in vivo
Method: Mice were each treated orally with one of the compounds of general formula I, and they were observed during the next 3 days.
The LD50 figures obtained (doses lethal to 50% of mice treated) are shown in Table II, expressed in mg/kg animal body weight. None of the mice died during the experiment even at doses of 1000 mg/kg animal body weight.

Q: For `COC1C(O)CC(=O)OC(C)C/C=C/C=C/C(OC2CCC(N(C)C)C(C)O2)C(C)CC(CC=O)C1OC1OC(C)C(OC2CC(C)(O)C(O)C(C)O2)C(N(C)C)C1O` (stereo not drawn) [Spiramycin I, spiramycin I, reference compound], which ED50 [1] is on record?
A: Its ED50 is 5.8 mg/kg.

Q: Which “In vitro minimum inhibitory concentration, S. aureus (Oxford)” value [2] does the source give for Spiramycin [reference compound] here?
A: Its value is 0.62 to 2.5 µg/mL.

Q: What about the “In vitro minimum inhibitory concentration, Escherichia coli B (Ennis)” value [3] of the same compound?
A: Its value is 62 to 250 µg/mL.

Q: For `CCOC(=O)CCC(=O)OC1C(OC2C(CC=O)CC(C)C(OC3CCC(N(C)C)C(C)O3)/C=C/C=C/CC(C)OC(=O)CC(O)C2OC)OC(C)C(OC2CC(C)(O)C(O)C(C)O2)C1N(C)C` (stereo not drawn) [A, 2'-ethyl succinate of spiramycin I], which ED50 [4] is on record?
A: Its ED50 is 88 mg/kg.

Q: And the ED50 ([1]; mouse, subcutaneous, 1, 4, 24, 30 and 48 hours after infection, observed seven days)?
A: The ED50 was 17.5 mg/kg.

Q: And the LD50 at 72 h (Mouse oral toxicity)?
A: The LD50 at 72 h was greater than 1000 mg/kg.

Q: What about the MIC [2] of the same compound?
A: Its MIC is 1.25 µg/mL.

Q: What about the MIC [3] of the same compound?
A: Its MIC is 62 µg/mL.

Q: For `COC(=O)CCCC(=O)OC1C(OC2C(CC=O)CC(C)C(OC3CCC(N(C)C)C(C)O3)/C=C/C=C/CC(C)OC(=O)CC(O)C2OC)OC(C)C(OC2CC(C)(O)C(O)C(C)O2)C1N(C)C` (stereo not drawn) [E, 2'-methyl glutarate of spiramycin I], which ED50 [4] is on record?
A: Its ED50 is 125 mg/kg.

Q: What about the MIC [2] of the same compound?
A: The MIC was 2.5 µg/mL (≈ 2.57 µM).

Q: What about the MIC [3] of the same compound?
A: The MIC was 125 µg/mL (≈ 129 µM).

Q: Which results are given for `COC1C(O)CC(=O)OC(C)C/C=C/C=C/C(OC2CCC(N(C)C)C(C)O2)C(C)CC(CC=O)C1OC1OC(C)C(OC2CC(C)(O)C(O)C(C)O2)C(N(C)C)C1OC(=O)CCC(=O)Oc1ccccc1` (stereo not drawn) [K, 2'-phenyl succinate of spiramycin I]?
A: ED50 [4]: 76 mg/kg; MIC [2]: 2.5 µg/mL; MIC [3]: 250 µg/mL

Q: Which results are given for `COC1C(O)CC(=O)OC(C)C/C=C/C=C/C(OC2CCC(N(C)C)C(C)O2)C(C)CC(CC=O)C1OC1OC(C)C(OC2CC(C)(O)C(O)C(C)O2)C(N(C)C)C1OC(=O)CCC(=O)OCCc1ccccc1` (stereo not drawn) [M, 2'-(2-phenylethyl) succinate of spiramycin I]?
A: ED50 [4]: 64 mg/kg; MIC [2]: 2.5 µg/mL; MIC [3]: 250 µg/mL

Q: For `COC1C(O)CC(=O)OC(C)C/C=C/C=C/C(OC2CCC(N(C)C)C(C)O2)C(C)CC(CC=O)C1OC1OC(C)C(OC2CC(C)(O)C(O)C(C)O2)C(N(C)C)C1OC(=O)CCC(=O)SC` (stereo not drawn) [G, 2'-S-methyl thiosuccinate of spiramycin I], which ED50 [4] is on record?
A: Its ED50 is 114 mg/kg.

Q: What about the MIC [2] of the same compound?
A: Its MIC is 2.5 µg/mL (≈ 2.57 µM).

Q: What about the MIC [3] of the same compound?
A: The MIC was 500 µg/mL (≈ 514 µM).

Q: Which results are given for `COC1C(O)CC(=O)OC(C)C/C=C/C=C/C(OC2CCC(N(C)C)C(C)O2)C(C)CC(CC=O)C1OC1OC(C)C(OC2CC(C)(O)C(O)C(C)O2)C(N(C)C)C1OC(=O)CCC(=O)OC1CCCCC1` (stereo not drawn) [H, 2'-cyclohexyl succinate of spiramycin I]?
A: ED50 [4]: 67 mg/kg; MIC [2]: 2.5 µg/mL; MIC [3]: 250 µg/mL

Q: Which results are given for `COC(=O)CC(C)C(=O)OC1C(OC2C(CC=O)CC(C)C(OC3CCC(N(C)C)C(C)O3)/C=C/C=C/CC(C)OC(=O)CC(O)C2OC)OC(C)C(OC2CC(C)(O)C(O)C(C)O2)C1N(C)C` (stereo not drawn) [Compound L, 2'-methyl (RS)-(3-methyl)succinate of spiramycin I]?
A: ED50 [4]: 58 mg/kg; MIC [2]: 2.5 µg/mL (≈ 2.57 µM); MIC [3]: 250 µg/mL (≈ 257 µM)

Q: Which ED50 [4] does the source give for `CCOC(=O)CCCC(=O)OC1C(OC2C(CC=O)CC(C)C(OC3CCC(N(C)C)C(C)O3)/C=C/C=C/CC(C)OC(=O)CC(O)C2OC)OC(C)C(OC2CC(C)(O)C(O)C(C)O2)C1N(C)C` (stereo not drawn) [B, 2'-ethyl glutarate of spiramycin I] here?
A: The ED50 was 135 mg/kg.

Q: And the LD50 at 72 h (Mouse oral toxicity)?
A: The LD50 at 72 h was greater than 1000 mg/kg.

Q: What about the MIC [2] of the same compound?
A: Its MIC is 1.25 µg/mL (≈ 1.27 µM).

Q: What about the MIC [3] of the same compound?
A: The MIC was 62 µg/mL (≈ 62.9 µM).

Q: Which ED50 [4] does the source give for `COC1C(O)CC(=O)OC(C)C/C=C/C=C/C(OC2CCC(N(C)C)C(C)O2)C(C)CC(CC=O)C1OC1OC(C)C(OC2CC(C)(O)C(O)C(C)O2)C(N(C)C)C1OC(=O)CCC(=O)OC(C)(C)C` (stereo not drawn) [N, 2'-tertiary-butyl succinate of spiramycin I] here?
A: The ED50 was 130 mg/kg.

Q: And the MIC [2]?
A: The MIC was 2.5 µg/mL.

Q: And the MIC [3]?
A: The MIC was 125 µg/mL.

Q: With `COC(=O)/C=C/C(=O)OC1C(OC2C(CC=O)CC(C)C(OC3CCC(N(C)C)C(C)O3)/C=C/C=C/CC(C)OC(=O)CC(O)C2OC)OC(C)C(OC2CC(C)(O)C(O)C(C)O2)C1N(C)C` (stereo not drawn) [F, 2'-methyl fumarate of spiramycin I] as the compound, how does the ED50 [4] read?
A: Its ED50 is 125 mg/kg.

Q: And the MIC [2]?
A: Its MIC is 2.5 µg/mL.

Q: And the MIC [3]?
A: Its MIC is 250 µg/mL.

Q: Which results are given for `CCCOC(=O)CCC(=O)OC1C(OC2C(CC=O)CC(C)C(OC3CCC(N(C)C)C(C)O3)/C=C/C=C/CC(C)OC(=O)CC(O)C2OC)OC(C)C(OC2CC(C)(O)C(O)C(C)O2)C1N(C)C` (stereo not drawn) [D, 2'-propyl succinate of spiramycin I]?
A: ED50 [4]: 90 mg/kg; MIC [2]: 2.5 µg/mL; MIC [3]: 250 µg/mL

Q: For `CCOC(=O)CC(=O)OC1C(OC2C(CC=O)CC(C)C(OC3CCC(N(C)C)C(C)O3)/C=C/C=C/CC(C)OC(=O)CC(O)C2OC)OC(C)C(OC2CC(C)(O)C(O)C(C)O2)C1N(C)C` (stereo not drawn) [J, 2'-ethyl malonate of spiramycin I], which ED50 [4] is on record?
A: The ED50 was 120 mg/kg.

Q: What about the MIC [2] of the same compound?
A: Its MIC is 5 µg/mL (≈ 5.22 µM).

Q: What about the MIC [3] of the same compound?
A: The MIC was 250 µg/mL (≈ 261 µM).

Q: With `COC(=O)CCC(=O)OC1C(OC2C(CC=O)CC(C)C(OC3CCC(N(C)C)C(C)O3)/C=C/C=C/CC(C)OC(=O)CC(O)C2OC)OC(C)C(OC2CC(C)(O)C(O)C(C)O2)C1N(C)C` (stereo not drawn) [C, 2'-methyl succinate of spiramycin I] as the compound, how does the ED50 [4] read?
A: The ED50 was 62 mg/kg.

Q: And the MIC [2]?
A: The MIC was 2.5 µg/mL.

Q: What about the MIC [3] of the same compound?
A: Its MIC is 250 µg/mL.

Q: With `COC1C(O)CC(=O)OC(C)C/C=C/C=C/C(OC2CCC(N(C)C)C(C)O2)C(C)CC(CC=O)C1OC1OC(C)C(OC2CC(C)(O)C(O)C(C)O2)C(N(C)C)C1OC(=O)CCC(=O)OC(C)C` (stereo not drawn) [O, 2'-isopropyl succinate of spiramycin I] as the compound, how does the ED50 [4] read?
A: The ED50 was 96 mg/kg.

Q: What about the MIC [2] of the same compound?
A: Its MIC is 1.25 µg/mL.

Q: What about the MIC [3] of the same compound?
A: The MIC was 125 µg/mL.
